Active and inactive are the calls of the source. The rule behind the calls is not given here.
How the values were obtained:
Caco-2 [1] = assay: cells; settings: Homo sapiens, Caco-2, 72 h, read-out: Activity
Caco-2 [2] = assay: Anticancer activity against human Caco-2 cells incubated for 72 hrs by MTT assay; type: functional, cell-based; settings: Caco-2, 72 h
MCF7 [3] = assay: cells; settings: Homo sapiens, MCF7, 72 h, read-out: Activity
Description: Induction of apoptosis in human MCF7 cells assessed as viable cells incubated at 0.027 uM for 72 hrs by annexin V-FITC based propidium iodide dual staining assay (Rvb = 99.9%)

[4] = Cytotoxicity in human WI-38 cells assessed as reduction in cell viability incubated for 72 hrs by MTT assay; type: toxicity, cell-based
HepG2 [5] = assay: cells; settings: Homo sapiens, HepG2, 72 h, read-out: Activity
Description: Induction of apoptosis in human HepG2 cells assessed as viable cells incubated at 0.027 uM for 72 hrs by annexin V-FITC based propidium iodide dual staining assay (Rvb = 97.27%)

MCF7 [6] = assay: Induction of apoptosis in human MCF7 cells assessed as ratio of gene expression activity in pro apoptotic Bax to anti apoptotic Bcl-2; type: functional
[7] = Cytotoxicity in human WI-38 cells assessed as safe dose incubated for 72 hrs by MTT assay; type: toxicity, cell-based; settings: read-out: EC100
HeLa [8] = assay: cells; settings: Homo sapiens, 72 h, read-out: Activity
Description: Induction of apoptosis in human HeLa cells assessed as viable cells incubated at 0.027 uM for 72 hrs by annexin V-FITC based propidium iodide dual staining assay (Rvb = 97.23%)

HeLa [9] = assay: Induction of apoptosis in human HeLa cells assessed as ratio of gene expression activity in pro apoptotic Bax to anti apoptotic Bcl-2; type: functional
HeLa [10] = assay: Anticancer activity against human HeLa cells incubated for 72 hrs by MTT assay; type: functional, cell-based
[11] = Selectivity index, ratio of IC50 for human WI-38 cells to IC50 for human HeLa cells; type: toxicity; settings: WI-38 cells versus HeLa cells, read-out: Ratio IC50
Caco-2 [12] = assay: Induction of apoptosis in human Caco-2 cells assessed as ratio of gene expression activity in pro apoptotic Bax to anti apoptotic Bcl-2; type: functional
[13] = target: Tumour suppressor p53/oncoprotein Mdm2 (Homo sapiens, UniProt P04637+Q00987); assay: Inhibition of human recombinant MDM2/p53 interaction measured after 10 mins by ELISA method; type: protein assay
HepG2 [14] = assay: Induction of apoptosis in human HepG2 cells assessed as ratio of gene expression activity in pro apoptotic Bax to anti apoptotic Bcl-2; type: functional
[15] = Selectivity index, ratio of IC50 for human WI-38 cells to IC50 for human Caco-2 cells
[16] = Selectivity index, ratio of IC50 for human WI-38 cells to IC50 for human HepG2 cells; type: toxicity; settings: WI-38 cells versus HepG2 cells, read-out: Ratio IC50
HepG2 [17] = assay: Potency index, ratio of 5-fluorouracil IC50 to test compound IC50 for antiproliferative activity against human HepG2 cells; type: functional
MCF7 [18] = assay: Anticancer activity against human MCF7 cells incubated for 72 hrs by MTT assay; type: functional, cell-based; settings: MCF7, 72 h
HepG2 [19] = assay: Anticancer activity against human HepG2 cells incubated for 72 hrs by MTT assay; type: functional, cell-based; settings: HepG2, 72 h
MCF7 [20] = assay: Potency index, ratio of 5-fluorouracil IC50 to test compound IC50 for antiproliferative activity against human MCF7 cells; type: functional
[21] = Selectivity index, ratio of IC50 for human WI-38 cells to IC50 for human MCF7 cells; type: toxicity; settings: WI-38 cells versus MCF7 cells, read-out: Ratio IC50
Caco-2 [22] = assay: Induction of apoptosis in human Caco-2 cells assessed as pro-oxidant effect by measuring free radical generation measured at 0.097 uM after 72 hrs; type: functional, cell-based
MCF7 [23] = assay: Induction of apoptosis in human MCF7 cells assessed as pro-oxidant effect by measuring free radical generation measured at 0.097 uM after 72 hrs; type: functional, cell-based
dsDNA [24] = assay: Induction of damage in dsDNA (unknown origin) assessed as DNA disruption by measuring fluorescence intensity at 100 uM incubated for 2.5 hrs by EvaGreen based fluorescence plate reader analysis; type: nucleic-acid assay
dsDNA [25] = assay: Induction of damage in dsDNA (unknown origin) assessed as DNA disruption by measuring damage constant at 100 uM incubated for 2.5 hrs by EvaGreen based fluorescence plate reader analysis; type: nucleic-acid assay
dsDNA [26] = assay: Induction of damage in dsDNA (unknown origin) assessed as DNA disruption by measuring amplitude at 100 uM incubated for 2.5 hrs by EvaGreen based fluorescence plate reader analysis; type: nucleic-acid assay

Sequence of Tumour suppressor p53/oncoprotein Mdm2 (P04637 whole entry): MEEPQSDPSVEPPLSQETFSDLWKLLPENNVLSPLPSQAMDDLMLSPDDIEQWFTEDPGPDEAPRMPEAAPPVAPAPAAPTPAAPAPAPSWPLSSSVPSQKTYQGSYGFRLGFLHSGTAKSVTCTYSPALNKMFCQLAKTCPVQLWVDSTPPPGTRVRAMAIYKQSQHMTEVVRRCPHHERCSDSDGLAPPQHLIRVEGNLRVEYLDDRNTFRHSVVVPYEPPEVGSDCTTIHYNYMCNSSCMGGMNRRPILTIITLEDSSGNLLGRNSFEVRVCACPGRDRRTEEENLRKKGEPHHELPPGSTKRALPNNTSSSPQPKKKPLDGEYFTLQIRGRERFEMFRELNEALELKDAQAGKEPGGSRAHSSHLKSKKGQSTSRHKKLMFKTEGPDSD
Sequence of Tumour suppressor p53/oncoprotein Mdm2 (Q00987 whole entry): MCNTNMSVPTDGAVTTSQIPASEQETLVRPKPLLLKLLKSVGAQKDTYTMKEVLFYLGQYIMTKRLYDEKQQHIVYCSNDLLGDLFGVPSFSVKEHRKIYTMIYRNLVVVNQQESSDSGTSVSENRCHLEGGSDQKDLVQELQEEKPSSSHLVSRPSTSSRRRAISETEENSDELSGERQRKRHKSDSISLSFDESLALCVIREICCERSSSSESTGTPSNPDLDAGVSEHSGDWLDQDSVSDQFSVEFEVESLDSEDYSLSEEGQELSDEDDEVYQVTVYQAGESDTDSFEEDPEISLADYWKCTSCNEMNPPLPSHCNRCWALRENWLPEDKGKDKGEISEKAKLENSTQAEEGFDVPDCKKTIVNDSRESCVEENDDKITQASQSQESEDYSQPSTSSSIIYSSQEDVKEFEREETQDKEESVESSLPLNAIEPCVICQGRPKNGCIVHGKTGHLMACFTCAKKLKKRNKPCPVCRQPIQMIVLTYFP

| Compound | IC50 (Caco-2 [2]) | IC50 (HeLa [10]) | Ratio IC50 [15] | IC50 (MCF7 [18]) | IC50 (HepG2 [19]) | IC50 at 72 h [4] | MNTC at 72 h [7] | selectivity ratio [11] | selectivity ratio [16] | Ratio IC50 (HepG2 [17]) | Ratio IC50 (MCF7 [20]) | selectivity ratio [21] | other results |
| --- | --- | --- | --- | --- | --- | --- | --- | --- | --- | --- | --- | --- | --- |
| O=C1CN(/N=C/c2ccc([N+](=O)[O-])o2)C(=O)N1 [NITROFURANTOIN] | 115 nM | 166 nM | 1.41 |  |  | 162 nM | 27 nM | 0.98 |  |  |  |  | viability at 0.027 µM (Caco-2 [1]): 85%; viability at 0.027 µM (MCF7 [3]): 98.8%; viability at 0.027 µM (HepG2 [5]): 98.7%; Ratio (MCF7 [6]): 0.958; viability at 0.027 µM (HeLa [8]): 84.8%; Ratio (HeLa [9]): 1.42; Ratio (Caco-2 [12]): 1.385; IC50 [13]: 1580 nM; Ratio (HepG2 [14]): 1.002 |
| O=C1CN(/N=C/c2ccc([N+](=O)[O-])o2)C(=O)N1Cc1cn(-c2ccc([N+](=O)[O-])cc2)nn1 | 140 nM | 113 nM | 1.32 | 117 nM | 63 nM | 183 nM | 26 nM | 1.62 | 2.92 | 1.2 | 1.2 | 1.56 |  |
| Cc1ccc(C(=O)CN2C(=O)CN(/N=C/c3ccc([N+](=O)[O-])o3)C2=O)cc1 | 140 nM | 115 nM | 1.28 | 255 nM | 287 nM | 180 nM | 33 nM | 1.58 | 0.628 |  |  | 0.706 |  |
| O=C1CN(/N=C/c2ccc([N+](=O)[O-])o2)C(=O)N1Cc1cn(-c2ccccc2)nn1 | 144 nM | 84 nM | 1.53 | 128 nM | 104 nM | 220 nM | 36 nM | 2.61 | 2.11 | 1.2 | 1.2 | 1.74 |  |
| COc1cccc2c1C(=O)c1c(O)c3c(c(O)c1C2=O)C[C@@](O)(C(=O)CO)C[C@@H]3O[C@H]1C[C@H](N)[C@H](O)[C@H](C)O1 |  |  |  |  |  |  |  |  |  |  |  |  | Activity (dsDNA [24]): 65.4; Activity (dsDNA [25]): 15.2; Activity (dsDNA [26]): 218 |
| O=C1CN(/N=C/c2ccc([N+](=O)[O-])o2)C(=O)N1Cc1ccc(Br)cc1 |  | 183 nM |  | 80 nM | 67 nM | 119 nM | 32 nM | 0.65 | 1.78 | 1.2 | 1.2 | 1.5 |  |
| O=C1CN(/N=C/c2ccc([N+](=O)[O-])o2)C(=O)N1Cc1ccc([N+](=O)[O-])cc1 | 103 nM | 121 nM | 1.75 | 103 nM | 127 nM | 181 nM | 9 nM | 1.51 | 1.42 | 1.2 | 1.2 | 1.77 |  |
| O=C1CN(/N=C/c2ccc([N+](=O)[O-])o2)C(=O)N1Cc1ccccc1 | 182 nM | 129 nM | 1.19 | 113 nM | 120 nM | 216 nM | 33 nM | 1.68 | 1.82 | 1.2 | 1.2 | 1.92 |  |
| Cc1ccc(-n2cc(CN3C(=O)CN(/N=C/c4ccc([N+](=O)[O-])o4)C3=O)nn2)cc1 | 113 nM | 59 nM | 2.05 | 145 nM | 283 nM | 232 nM | 27 nM | 3.92 | 0.824 |  | 1.2 | 1.6 |  |

Further compounds by falling IC50 (Caco-2 [2]), results first:

| IC50 (Caco-2 [2]) | IC50 (HeLa [10]) | Ratio IC50 [15] | IC50 (MCF7 [18]) | IC50 (HepG2 [19]) | Compound | IC50 at 72 h [4] | MNTC at 72 h [7] | selectivity ratio [11] | selectivity ratio [16] | Ratio IC50 (HepG2 [17]) | Ratio IC50 (MCF7 [20]) | selectivity ratio [21] | other results |
| --- | --- | --- | --- | --- | --- | --- | --- | --- | --- | --- | --- | --- | --- |
| 105 nM | 87 nM | 1.37 | 198 nM | 149 nM | COc1ccc(C(=O)CN2C(=O)CN(/N=C/c3ccc([N+](=O)[O-])o3)C2=O)cc1 | 140 nM | 26 nM | 1.61 | 0.948 | 1.2 | 1.2 | 0.706 |  |
| 87 nM | 108 nM | 1.01 | 120 nM | 71 nM | O=C1CN(/N=C/c2ccc([N+](=O)[O-])o2)C(=O)N1Cc1cn(-c2ccc(S(=O)(=O)Nc3nccs3)cc2)nn1 | 87.9 nM | 32 nM | 0.813 | 1.23 | 1.2 | 1.2 | 0.727 |  |
| 78 nM | 97 nM | 3.05 | 105 nM | 289 nM | O=C(CN1C(=O)CN(/N=C/c2ccc([N+](=O)[O-])o2)C1=O)c1ccc(Br)cc1 | 240 nM | 66 nM | 2.47 | 0.83 |  | 1.2 | 2.31 |  |
| 77 nM | 78 nM | 1.95 | 85 nM | 400 nM | O=C1CN(/N=C/c2ccc([N+](=O)[O-])o2)C(=O)N1Cc1cn(-c2ccc(Cl)cc2)nn1 | 150 nM | 29 nM | 1.92 | 0.376 |  | 1.2 | 1.77 | Activity (Caco-2 [22]): Active; Activity (MCF7 [23]): Active |
| 73 nM |  | 3.08 | 76 nM | 277 nM | O=C(CN1C(=O)CN(/N=C/c2ccc([N+](=O)[O-])o2)C1=O)c1ccccc1 | 226 nM | 19 nM |  | 0.824 |  | 1.2 | 2.98 |  |

— ChEMBL document CHEMBL5380816, “Inclusion of Nitrofurantoin into the Realm of Cancer Chemotherapy via Biology-Oriented Synthesis and Drug Repurposing” (J Med Chem, 2023)
